Test: Preliminary screens of amino acids
Experimental: In addition to the amino acid combinations described above, several other combinations are tested that include, e.g., Trp and/or Arg to determine if inclusion of these amino acids confers additional dermatological benefits. […] At the outset, the following combinations of amino acids are tested: Ala, Gln, Gly, Ser (combo #1); Ala, Gln, Gly, Ser, Val, Ile (combo #2); Ala, Gln, Gly, Ser, Val; Ala, Gln, Gly, Ser, Ile; Ala, Gln, Gly, Ser, Ile, Val, Trp; Ala, Gln, Gly, Ser, Ile, Val, Arg; and Ala, Gln, Gly, Ser, Ile, Val, Trp, Arg.

Row | SMILES | effect in preliminary screens
1 | N=C(N)NCCC[C@H](N)C(=O)O [Arg, arginine] | positive effects
2 | N[C@@H](Cc1c[nH]c2ccccc12)C(=O)O [Trp, tryptophan] | positive effects
